From PubChem BioAssay AID1902 (Broad Institute, 2009)
Active and inactive are the calls of the source.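 Rule for the calls: active = EC50 no more than a set limit of log units above the highest dose; inactive = the rest.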

Target: S. pyogenes SKKanGAS, kanamycin survival, BacTiterGlo, 6 h
Experiment: S. pyogenes SKKanGAS kanamycin growth inhibitors – SKKanGAS strain, luminescence, dose confirmation, streptokinase promoter inhibitor project, dose response (AID 1902);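 note: lower survival reflects blocked streptokinase promoter driving kanamycin resistance gene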

| SMILES | EC50 |
| --- | --- |
| COc1ccc(N2CCN(C(=O)Cc3csc(NC(=O)Nc4ccccc4OC)n3)CC2)cc1 | 12.7 µM |
| CCOC(=O)c1cc(-c2cccs2)nc2c1c(C)nn2-c1ccccn1 | 2.64 µM |
| Cn1cnnc1SCc1ccc(C(=O)N=Nc2c(O)n(Cc3ccc(Cl)cc3)c3ccccc23)cc1 | 4.51 µM |
| O=C(Nc1cccc(NC(=O)c2cccnc2)c1)c1ccccc1 | > 15 µM (inactive) |
| NC(=O)N=Nc1c2[nH]c3ccccc3nc-2c2ccccc12 | 5.32 µM |
| Cc1[nH]n(-c2ccccc2)c(=O)c1/C=N\NC(=O)C1COc2ccccc2O1 (centres undefined) | 1.37 µM |
| Oc1ccccc1C1CCCCC1c1ccccc1 (centres undefined) | 3.9 µM |
| CCOC(=O)C1=C(C)NC2=C(C(=O)c3ccccc32)C1c1ccc([N+](=O)[O-])o1 (centres undefined) | 12.8 µM |
| COc1ccccc1CNC(=O)CSc1nc(=O)n(Cc2ccncc2)c2c1CCC2 | > 15 µM (inactive) |
| CC(=O)Nc1nc2ccccc2n1CCOc1ccccc1 | 11.3 µM |
| FC(F)(F)c1cccc(CNC2c3ccccc3-c3ccccc32)c1 | 6.57 µM |
| Cc1ccn2c(Nc3ccccc3C)c(-c3ccccn3)nc2c1 | 2.19 µM |
| O=C(NNC1=C(C(=O)C(F)(F)F)CCC1)c1ccc(Br)cc1 | 0.926 µM |
| COc1ccc(Cl)cc1C(Nc1cccnc1)c1ccc2cccnc2c1O (centres undefined) | 6.28 µM |
| O=C(O)CN1C(=O)/C(=C\c2cc(Br)ccc2OCc2ccc(Cl)cc2)SC1=S | 1.56 µM |
| CCOC(=O)c1cnn(-c2nc(-c3cccc(F)c3)cs2)c1C(F)(F)F | 12.3 µM |
| CCC1=NN2C(=N)/C(=C\c3cccn3-c3ccc(C)c(C)c3)C(=O)N=C2S1 | 3.91 µM |
| CCCn1c(C2CCCN2c2nc(-c3cccc(Br)c3)cs2)nc2cc(Cl)c(Cl)cc21 (centres undefined) | 3.68 µM |
| CC(C)OC(=O)c1cccnc1N1CCN(c2cccc(Cl)c2)CC1 | 4.36 µM |
| COc1cccc(NCc2cc(=O)oc3cc(C)c(O)cc23)c1 | 1.85 µM |
| CCn1c(=O)c(C(=O)Nc2nc3ccccc3[nH]2)c(O)c2ccccc21 | 1.03 µM |
| CC(C)(C)c1ccc(C(=O)Nc2ccc(F)cc2)s1 | > 15 µM (inactive) |
| Oc1ccccc1C1=NN(c2ccccc2)C(c2ccccc2)C1 (centres undefined) | 2.76 µM |
| Clc1ccc(-c2n[nH]c3c2CCC3)cc1Cl | 12.6 µM |
| O=C(NC(=S)Nc1ccccc1N1CCCCC1)c1ccc(F)cc1Cl | 3.4 µM |
| O=C(Nc1ccccc1)Nc1cc(OCC(F)(F)F)cc(OCC(F)(F)F)c1 | 4.78 µM |
| COc1ccc(C(=O)NNC(=S)NC(=O)c2ccc(Br)o2)cc1OC | 0.779 µM |

| SMILES | EC50 |
| --- | --- |
| CC1=NN(C(N)=S)C(=O)C1N=Nc1c(C)cc(C)cc1C (centres undefined) | 5.77 µM |
| CCOC(=O)c1c(NC(=O)COC(=O)c2ccc(C)s2)sc2c1CC(C)(C)NC2(C)C | 3.7 µM |
| COc1c(N2CCN(C(=S)Nc3ccc(F)cc3)C(C)C2)c(F)cc2c(=O)c(C(=O)O)cn(C3CC3)c12 (centres undefined) | 3.37 µM |
| CCCCNC(=O)c1ccc(NC(C)=O)c(Cl)c1 | > 15 µM (inactive) |
| CSc1c(SCc2ccccc2)cnn(Cc2ccccc2)c1=O | 3.95 µM |
| CC(C)(O)c1[nH]c2cc(F)ccc2c1C(C)(C)O | 1.67 µM |
| Cc1cc(C)c2nc(NNC(=O)c3ccc(S(=O)(=O)N4CC(C)CC(C)C4)cc3)sc2c1 (centres undefined) | 0.815 µM |
| CC1=NN(c2nc3ccccc3[nH]2)C(=O)C1Cc1ccccc1 (centres undefined) | 0.507 µM |
| O=c1c2ccccc2sn1-c1ccccc1 | 1.11 µM |
| Cc1ccc(C)c(-c2csc(N)c2C(=O)OC(C)C)c1 | 3.11 µM |
| c1ccc(C(NCCNC(c2ccccc2)c2ccccc2)c2ccccc2)cc1 | 1.05 µM |
| CCc1c(C)c(C#N)c2[nH]c3ccccc3n2c1=S | 14.1 µM |
| CC(C)(C)NC(=O)C1CC2CCCCC2CN1 (centres undefined) | > 15 µM (inactive) |
| O=C(/C(=N\Nc1ccc([N+](=O)[O-])cc1)Sc1nnnn1-c1ccccc1)c1ccccc1 | 5.46 µM |
| S=c1[nH]nc(-c2cc3c(s2)-c2ccccc2CC3)o1 | 3.87 µM |
| O=C(CCCCCNC(=O)c1ccccc1)N=Nc1c(O)[nH]c2c(Br)cc(Br)cc12 | 5.43 µM |
| CSc1ccccc1-c1n[nH]c(=S)o1 | > 5 µM (inactive) |
| CCc1ccc(OCC(=O)NC(NC(=S)Nc2ccc(C)cc2C)C(Cl)(Cl)Cl)cc1 (centres undefined) | 4.44 µM |
| Cc1nn(Cc2ccc(Cl)cc2Cl)c(C)c1NC(=O)NC12CC3CC(CC(C3)C1)C2 | 14.2 µM |
| CC1Oc2cc3oc4c(O)c5c(cc4c(=O)c3c(O)c2C1(C)C)C=CC(C)(C)O5 (centres undefined) | 2.48 µM |
| CN(Cc1cnc2nc(N)nc(N)c2n1)c1ccc(C(=O)N[C@@H](CCC(=O)O)C(=O)O)cc1 | 0.61 µM |
| O=C1c2ccccc2C(=O)c2[nH]c(=O)[nH]c21 | 9.21 µM |
| Cc1ccc(C(C)C)cc1OCC(=O)Nc1ccccc1N1CCCC1 | 3.56 µM |
| CCCSc1nsc(NC(=O)C(c2ccccc2)c2ccccc2)n1 | 3.03 µM |
| C/C(CC(=O)Nc1ccc(Cl)c(C(F)(F)F)c1)=N\NC(=O)c1cc2ccccc2cc1O | 1.58 µM |
| COc1ccccc1-c1cn[nH]c1-c1ccc(OCc2ccc(F)cc2)cc1O | 10.8 µM |
| CC1CCN(c2nc(-c3ccc(F)cc3)cc(C(F)(F)F)n2)CC1 | 1.71 µM |
